{
  "source": "ChEMBL document CHEMBL1201862",
  "about": "“PubChem BioAssay data set” (2004)",
  "key": {"Fatty acid synthase [1]": {"biological_target": "T1, Fatty acid synthase (Homo sapiens, UniProt P49327)", "T1 sequence (P49327 whole entry, the tested form may be a part)": "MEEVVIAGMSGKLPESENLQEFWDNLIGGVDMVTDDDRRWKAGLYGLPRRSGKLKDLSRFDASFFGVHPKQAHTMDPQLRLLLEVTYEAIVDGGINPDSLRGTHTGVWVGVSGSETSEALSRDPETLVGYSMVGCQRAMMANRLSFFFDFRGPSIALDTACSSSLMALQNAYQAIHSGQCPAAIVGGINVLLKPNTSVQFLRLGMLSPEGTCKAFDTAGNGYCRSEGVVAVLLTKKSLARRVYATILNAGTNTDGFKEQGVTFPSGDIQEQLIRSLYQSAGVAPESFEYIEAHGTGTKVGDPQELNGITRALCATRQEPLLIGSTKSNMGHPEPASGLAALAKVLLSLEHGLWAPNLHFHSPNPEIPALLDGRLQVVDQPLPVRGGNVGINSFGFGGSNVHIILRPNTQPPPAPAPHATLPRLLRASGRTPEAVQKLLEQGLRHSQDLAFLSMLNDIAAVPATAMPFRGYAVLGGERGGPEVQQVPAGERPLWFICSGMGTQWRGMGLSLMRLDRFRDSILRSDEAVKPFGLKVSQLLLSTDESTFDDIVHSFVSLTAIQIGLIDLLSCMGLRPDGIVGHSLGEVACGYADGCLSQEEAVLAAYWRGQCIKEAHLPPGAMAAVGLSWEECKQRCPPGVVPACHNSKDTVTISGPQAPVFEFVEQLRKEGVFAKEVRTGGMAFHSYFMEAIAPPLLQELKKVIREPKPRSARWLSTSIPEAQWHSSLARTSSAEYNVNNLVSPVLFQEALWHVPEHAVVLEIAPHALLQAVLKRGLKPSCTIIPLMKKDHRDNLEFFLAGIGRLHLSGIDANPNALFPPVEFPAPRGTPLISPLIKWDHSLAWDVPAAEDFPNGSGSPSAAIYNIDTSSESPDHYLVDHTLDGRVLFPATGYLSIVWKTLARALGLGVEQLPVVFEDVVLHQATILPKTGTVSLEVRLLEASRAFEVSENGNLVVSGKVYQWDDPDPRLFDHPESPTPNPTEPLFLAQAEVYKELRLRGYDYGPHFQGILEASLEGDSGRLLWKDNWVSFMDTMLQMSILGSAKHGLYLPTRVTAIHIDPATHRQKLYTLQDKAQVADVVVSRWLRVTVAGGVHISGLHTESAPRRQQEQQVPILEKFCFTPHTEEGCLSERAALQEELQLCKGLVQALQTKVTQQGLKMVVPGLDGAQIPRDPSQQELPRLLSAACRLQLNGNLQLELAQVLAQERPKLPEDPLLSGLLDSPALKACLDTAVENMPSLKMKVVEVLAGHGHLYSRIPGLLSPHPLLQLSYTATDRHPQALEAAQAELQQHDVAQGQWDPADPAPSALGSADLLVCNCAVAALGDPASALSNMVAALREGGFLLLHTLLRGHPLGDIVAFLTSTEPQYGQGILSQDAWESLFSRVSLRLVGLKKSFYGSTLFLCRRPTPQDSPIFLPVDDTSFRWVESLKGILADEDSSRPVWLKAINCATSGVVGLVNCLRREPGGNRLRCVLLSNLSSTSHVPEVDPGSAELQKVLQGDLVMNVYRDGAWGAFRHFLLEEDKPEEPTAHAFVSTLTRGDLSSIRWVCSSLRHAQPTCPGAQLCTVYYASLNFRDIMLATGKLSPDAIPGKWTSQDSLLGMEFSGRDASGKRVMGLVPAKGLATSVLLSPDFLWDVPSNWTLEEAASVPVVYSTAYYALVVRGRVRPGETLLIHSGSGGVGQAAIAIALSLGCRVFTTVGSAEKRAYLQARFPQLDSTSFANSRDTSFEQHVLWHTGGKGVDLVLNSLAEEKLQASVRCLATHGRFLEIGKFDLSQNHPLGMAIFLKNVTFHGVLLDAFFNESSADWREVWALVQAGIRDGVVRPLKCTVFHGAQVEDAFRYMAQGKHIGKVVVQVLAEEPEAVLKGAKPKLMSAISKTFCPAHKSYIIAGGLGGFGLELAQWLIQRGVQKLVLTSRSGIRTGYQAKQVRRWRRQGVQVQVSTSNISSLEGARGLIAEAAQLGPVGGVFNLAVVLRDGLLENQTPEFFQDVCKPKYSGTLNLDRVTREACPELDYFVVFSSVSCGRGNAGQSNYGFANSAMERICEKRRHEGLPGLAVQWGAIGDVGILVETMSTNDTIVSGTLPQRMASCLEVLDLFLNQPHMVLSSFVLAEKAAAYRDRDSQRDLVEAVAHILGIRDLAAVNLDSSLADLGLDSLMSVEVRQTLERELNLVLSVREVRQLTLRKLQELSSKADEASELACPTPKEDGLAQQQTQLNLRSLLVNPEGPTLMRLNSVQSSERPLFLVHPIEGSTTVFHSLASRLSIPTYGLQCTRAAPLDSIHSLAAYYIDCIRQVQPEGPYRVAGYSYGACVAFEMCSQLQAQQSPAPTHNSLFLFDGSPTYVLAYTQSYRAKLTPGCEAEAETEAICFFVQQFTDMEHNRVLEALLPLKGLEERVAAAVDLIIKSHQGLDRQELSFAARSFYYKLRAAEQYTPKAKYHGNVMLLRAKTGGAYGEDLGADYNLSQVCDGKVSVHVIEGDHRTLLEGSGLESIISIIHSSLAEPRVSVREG", "test": "FAS thioesterase domain inhibitors, dose response, biochemical, endpoint fluorescence intensity, uHTS hits (AID 624327);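 also: fluorescence from hydrolysis of an O-methyl fluorescein acyl ester substrate by the enzyme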", "format": "functional"}, "[2]": {"biological_target": "Beta-2 adrenergic receptor (Homo sapiens, UniProt P07550)", "sequence (P07550 whole entry)": "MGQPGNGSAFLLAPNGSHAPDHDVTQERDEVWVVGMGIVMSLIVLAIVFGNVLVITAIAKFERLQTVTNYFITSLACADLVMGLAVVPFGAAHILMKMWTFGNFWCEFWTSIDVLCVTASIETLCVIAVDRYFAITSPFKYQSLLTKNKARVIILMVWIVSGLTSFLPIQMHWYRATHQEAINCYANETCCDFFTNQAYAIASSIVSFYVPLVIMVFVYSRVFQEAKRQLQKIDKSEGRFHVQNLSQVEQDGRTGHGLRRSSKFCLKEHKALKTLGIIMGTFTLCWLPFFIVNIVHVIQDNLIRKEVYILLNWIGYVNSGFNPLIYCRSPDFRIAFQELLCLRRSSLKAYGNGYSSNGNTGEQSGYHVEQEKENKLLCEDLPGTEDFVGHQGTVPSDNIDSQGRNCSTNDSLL", "test": "beta2AR agonists driving receptor internalization, dose response, cell-based, FAP fluorogen, flow cytometry, cherry pick 1 (AID 588763)", "format": "functional"}, "Fatty acid synthase [3]": {"biological_target": "T1, Fatty acid synthase", "test": "FAS thioesterase domain inhibitors, dose response, biochemical, kinetic fluorescence intensity (AID 624326);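 also: rate of fluorescence rise from hydrolysis of a fluorogenic O-methyl fluorescein ester substrate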", "format": "functional"}, "Candida albicans [4]": {"test_system": "Candida albicans", "test": "C. albicans growth inhibition with fluconazole, dose response, antifungal resistance reversal project, CaCi-2 strain, Alamar Blue, dry powder, set 2 (AID 488930)", "format": "functional, organism-based"}, "Candida albicans [5]": {"test_system": "Candida albicans", "test": "fluconazole resistance reversal in C. albicans, dose response, CaCi-2 strain, Alamar Blue, dry powder, set 4 (AID 488943)", "format": "functional, organism-based"}, "Candida albicans [6]": {"test_system": "Candida albicans", "test": "growth inhibition of azole-resistant C. albicans, dose response, CaCi-8 strain, Alamar Blue, dry powder, set 2 (AID 488909)", "format": "functional, organism-based"}, "Candida albicans [7]": {"test_system": "Candida albicans", "test": "Candida albicans growth inhibition, compound alone, dose response, counter-screen for antifungal drug resistance project, CaCi-2 strain, Alamar Blue, dry powder, set 2 (AID 488893)", "format": "functional, organism-based"}, "Candida albicans [8]": {"test_system": "Candida albicans", "test": "growth inhibition of resistant C. albicans, dose response, CaCi-8 strain, fluconazole, dry powder, set 4 (AID 488950)", "format": "functional, organism-based"}, "Melanocortin receptor 4": {"biological_target": "Melanocortin receptor 4 (Homo sapiens, UniProt P32245)", "sequence (P32245 whole entry)": "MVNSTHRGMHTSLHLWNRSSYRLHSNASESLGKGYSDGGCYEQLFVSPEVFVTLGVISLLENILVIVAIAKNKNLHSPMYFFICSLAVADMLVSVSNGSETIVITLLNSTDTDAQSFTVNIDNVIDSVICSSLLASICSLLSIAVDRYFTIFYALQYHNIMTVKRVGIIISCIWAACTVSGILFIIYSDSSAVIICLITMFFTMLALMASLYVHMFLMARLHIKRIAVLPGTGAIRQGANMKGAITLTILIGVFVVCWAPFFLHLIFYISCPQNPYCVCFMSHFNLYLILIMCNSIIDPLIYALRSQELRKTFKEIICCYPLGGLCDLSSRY", "test": "MC4R antagonist potency on cAMP, dose response, cell-based, TR-FRET, biased antagonists (AID 602298);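 also: antagonist potency against agonist-stimulated cAMP production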", "format": "functional"}, "[9]": {"test_system": "Streptococcus sp. 'group A'", "test": "growth inhibition of control SK(-) GAS strain, dose response, counter-screen for streptokinase expression inhibitor project, luminescence, kanamycin, BacTiterGlo, confirmation (AID 1900)", "format": "functional, organism-based"}, "Streptococcus": {"test_system": "Streptococcus", "test": "Group A Streptococcus viability loss, dose response, counter-screen for streptokinase expression inhibitor project, luminescence, BacTiterGlo (AID 1915);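 also: potency for reduction of bacterial viability or growth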", "format": "functional, organism-based"}, "Streptokinase A": {"biological_target": "T2, Streptokinase A (Streptococcus pyogenes serotype M1, UniProt P10520)", "T2 sequence (P10520 whole entry)": "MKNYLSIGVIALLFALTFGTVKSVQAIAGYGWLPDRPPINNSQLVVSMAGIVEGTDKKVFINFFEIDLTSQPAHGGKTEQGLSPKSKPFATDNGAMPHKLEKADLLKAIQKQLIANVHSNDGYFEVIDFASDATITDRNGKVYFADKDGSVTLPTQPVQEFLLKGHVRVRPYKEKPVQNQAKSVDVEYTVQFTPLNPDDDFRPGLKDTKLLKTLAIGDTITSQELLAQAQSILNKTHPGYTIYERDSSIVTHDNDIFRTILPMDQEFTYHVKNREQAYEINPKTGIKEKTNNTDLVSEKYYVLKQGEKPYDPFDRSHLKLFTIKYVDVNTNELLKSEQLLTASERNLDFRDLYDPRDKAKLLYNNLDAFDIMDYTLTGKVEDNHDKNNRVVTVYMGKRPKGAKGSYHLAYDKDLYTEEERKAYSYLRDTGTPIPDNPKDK", "test": "S. pyogenes streptokinase expression inhibitors, potency, dose response, plasminogen activation absorbance, OD405 (AID 1914);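 also: secreted streptokinase activity via plasminogen activation per viability signal from cell pellet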", "format": "functional, Streptococcus pyogenes M1 GAS"}, "[10]": {"biological_target": "5-hydroxytryptamine receptor 5A (Homo sapiens, UniProt P47898)", "sequence (P47898 whole entry)": "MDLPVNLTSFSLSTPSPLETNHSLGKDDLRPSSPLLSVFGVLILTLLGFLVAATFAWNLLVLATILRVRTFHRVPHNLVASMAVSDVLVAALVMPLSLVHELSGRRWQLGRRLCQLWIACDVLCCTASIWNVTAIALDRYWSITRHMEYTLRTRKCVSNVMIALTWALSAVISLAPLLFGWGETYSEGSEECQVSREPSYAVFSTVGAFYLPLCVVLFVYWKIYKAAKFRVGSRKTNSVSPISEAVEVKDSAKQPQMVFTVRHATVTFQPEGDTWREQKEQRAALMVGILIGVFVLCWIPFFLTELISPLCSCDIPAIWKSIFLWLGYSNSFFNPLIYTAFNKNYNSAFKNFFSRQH", "test": "Counterscreen for agonists of OPRM1-OPRD1 heterodimerization: luminescence-based cell-based high throughput dose response assay to identify agonists of 5-hydroxytryptamine (serotonin) 5A receptor (HTR5A). [Related pubchem assays (depositor defined):AID504326, AID504355, AID504692, AID504904, AID504905]", "format": "functional"}, "[11]": {"test": "nonselective inhibitors of cellular cAMP signaling, dose response, counter-screen for MC4R biased antagonist project, cell-based, TR-FRET cAMP detection (AID 602305);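 also: U2OS cells stimulated with forskolin near its EC80 as the cAMP inducer; potency is for inhibition of forskolin-stimulated cAMP signaling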", "format": "functional"}, "Mu-type opioid receptor": {"biological_target": "Mu-type opioid receptor (Homo sapiens, UniProt P35372)", "sequence (P35372 whole entry)": "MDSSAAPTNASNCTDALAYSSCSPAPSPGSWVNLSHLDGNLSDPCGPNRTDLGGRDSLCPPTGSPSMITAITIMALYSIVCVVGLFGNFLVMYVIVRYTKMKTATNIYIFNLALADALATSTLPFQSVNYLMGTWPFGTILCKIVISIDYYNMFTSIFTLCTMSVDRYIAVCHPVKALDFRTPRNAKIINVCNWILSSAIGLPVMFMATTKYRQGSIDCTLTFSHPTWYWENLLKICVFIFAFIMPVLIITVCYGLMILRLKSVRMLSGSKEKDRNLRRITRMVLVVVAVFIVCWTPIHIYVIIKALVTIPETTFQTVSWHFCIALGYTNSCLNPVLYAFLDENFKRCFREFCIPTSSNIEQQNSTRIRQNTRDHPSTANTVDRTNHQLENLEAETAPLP", "test": "(§1) Counterscreen for agonists of heterodimerization of the mu 1 (OPRM1) and delta 1 (OPRD1) opioid receptors: Luminescence-based cell-based high throughput dose response assay to identify agonists of OPRM1 homodimerization.", "format": "functional"}, "[12]": {"biological_target": "T3, Microphthalmia-associated transcription factor (Homo sapiens, UniProt O75030)", "T3 sequence (O75030 whole entry)": "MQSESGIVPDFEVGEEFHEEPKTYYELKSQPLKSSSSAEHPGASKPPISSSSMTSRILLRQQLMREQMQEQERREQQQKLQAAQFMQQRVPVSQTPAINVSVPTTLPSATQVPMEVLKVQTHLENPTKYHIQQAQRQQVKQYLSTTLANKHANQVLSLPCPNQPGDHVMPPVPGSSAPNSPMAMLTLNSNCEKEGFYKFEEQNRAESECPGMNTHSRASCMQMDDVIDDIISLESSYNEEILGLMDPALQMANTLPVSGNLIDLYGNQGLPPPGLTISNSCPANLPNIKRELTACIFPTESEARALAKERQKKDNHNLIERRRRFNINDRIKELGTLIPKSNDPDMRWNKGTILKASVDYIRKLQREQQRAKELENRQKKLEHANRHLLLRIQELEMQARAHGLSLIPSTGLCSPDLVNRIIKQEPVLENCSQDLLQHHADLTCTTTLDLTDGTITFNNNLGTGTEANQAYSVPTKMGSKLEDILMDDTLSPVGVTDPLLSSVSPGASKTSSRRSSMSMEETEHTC", "test": "TRPM1 promoter luciferase signal decrease, dose response, MITF inhibitor project, cell-based, SK-MEL-5, cherry-picked, set 3 (AID 493073)", "format": "functional"}, "[13]": {"biological_target": "Neurotensin receptor type 1 (Homo sapiens, UniProt P30989)", "sequence (P30989 whole entry)": "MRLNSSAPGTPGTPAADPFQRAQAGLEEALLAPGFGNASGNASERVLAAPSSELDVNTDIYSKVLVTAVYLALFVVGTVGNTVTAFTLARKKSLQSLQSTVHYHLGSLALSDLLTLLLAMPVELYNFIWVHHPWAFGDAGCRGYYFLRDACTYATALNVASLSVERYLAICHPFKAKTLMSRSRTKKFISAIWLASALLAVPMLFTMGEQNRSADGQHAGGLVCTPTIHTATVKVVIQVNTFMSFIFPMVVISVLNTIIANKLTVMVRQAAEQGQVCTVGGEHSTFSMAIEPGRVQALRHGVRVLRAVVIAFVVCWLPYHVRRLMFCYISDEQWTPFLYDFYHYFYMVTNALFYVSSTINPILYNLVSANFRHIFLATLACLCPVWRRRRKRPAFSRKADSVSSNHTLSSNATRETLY", "format": "functional"}, "A-375": {"test_system": "A-375", "test": "MITF: Counter assay: A375 proliferation Measured in Cell-Based System Using Plate Reader - 2084-03_Inhibitor_Dose_DryPowder_Activity. [Related pubchem assays (depositor defined):AID488944]", "format": "functional", "settings": "Homo sapiens"}, "[14]": {"biological_target": "Delta-type opioid receptor (Homo sapiens, UniProt P41143)", "sequence (P41143 whole entry)": "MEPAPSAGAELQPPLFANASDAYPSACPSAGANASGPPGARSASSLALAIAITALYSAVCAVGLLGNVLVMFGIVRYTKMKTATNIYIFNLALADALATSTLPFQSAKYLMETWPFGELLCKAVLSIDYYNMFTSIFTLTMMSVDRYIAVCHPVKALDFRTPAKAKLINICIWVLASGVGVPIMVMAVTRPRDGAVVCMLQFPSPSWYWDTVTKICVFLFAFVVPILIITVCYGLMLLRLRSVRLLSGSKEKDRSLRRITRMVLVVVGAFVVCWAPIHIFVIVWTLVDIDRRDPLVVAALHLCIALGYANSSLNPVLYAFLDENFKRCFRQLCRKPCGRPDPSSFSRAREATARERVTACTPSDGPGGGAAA", "test": "as §1, with “of OPRD1” for “of OPRM1”, “homodimerization. [Related pubchem assays (depositor defined):AID504326, AID504355, AID504692, AID504904, AID504905]” for “homodimerization.”", "format": "functional"}},
  "note": "Active and inactive are the calls of the source.",
  "data": [
    {"molecule": "N#Cc1cc(-c2ccccc2)nc(Oc2ccc(Cl)cc2)n1", "values": [
      {"measurement": "IC50", "setting": "Fatty acid synthase [1]", "result": "7.97 µM (active)"},
      {"measurement": "EC50", "setting": "[2]", "result": "1.25 µM (active)"},
      {"measurement": "IC50", "setting": "Fatty acid synthase [3]", "result": "9.1 µM (active)"}
    ]},
    {"molecule": "COc1ccc(C(=O)N2CCN(c3ccnc4cc(Cl)ccc34)CC2)cc1", "values": [
      {"measurement": "AC50", "setting": "Candida albicans [4]", "result": "4.25 µM (active)"},
      {"measurement": "AC50", "setting": "Candida albicans [5]", "result": "4.15 µM (active)"},
      {"measurement": "AC50", "setting": "Candida albicans [6]", "result": "10.2 µM (active)"},
      {"measurement": "AC50", "setting": "Candida albicans [7]", "result": "32.2 µM (active)"},
      {"measurement": "AC50", "setting": "Candida albicans [8]", "result": "5.38 µM (active)"}
    ]},
    {"molecule": "CN(C)S(=O)(=O)c1ccc(-c2csc(N/N=C/c3ccc(O)cc3)n2)cc1", "values": [
      {"measurement": "IC50", "setting": "Melanocortin receptor 4", "result": "> 64.6 µM (inactive)"},
      {"measurement": "EC50", "setting": "[9]", "result": "8.68 µM (active)"},
      {"measurement": "EC50", "setting": "Streptococcus", "result": "13.3 µM (active)"},
      {"measurement": "EC50", "setting": "Streptokinase A", "result": "> 150 µM (not active)"},
      {"measurement": "EC50", "setting": "[10]", "result": "> 92.5 µM (inactive)"},
      {"measurement": "IC50", "setting": "[11]", "result": "> 64.6 µM (inactive)"},
      {"measurement": "EC50", "setting": "Mu-type opioid receptor", "result": "> 92.5 µM (inactive)"},
      {"measurement": "AC50", "setting": "[12]", "result": "4.6 µM (active)"},
      {"measurement": "EC50", "setting": "[13]", "result": "6.62 µM (active)"},
      {"measurement": "AC50", "setting": "A-375", "result": "30.8 µM (active)"},
      {"measurement": "EC50", "setting": "[14]", "result": "> 92.5 µM (inactive)"}
    ]}
  ]
}
